Assay results as given in patent publication US10906910B2, “Substituted bicyclic pyrimidine compounds with tubulin and multiple receptor inhibition” (Duquesne University of the Holy Spirit, priority 2014, dated 2021).

Legend:
[1] = system: tubulin (colchicine site); assay: inhibition of [3H]colchicine binding to tubulin; set-up: species or system bovine
[2] = system: A431 cells; assay: A431 cytotoxicity; assay type: cell-based; conditions: Homo sapiens, A-431
[3] = system: HL-60(TB); assay: NCI 60 panel, Leukemia HL-60(TB); assay type: cell-based; conditions: Homo sapiens, read-out: Tumor cell inhibitory activity (NCI) GI50
[4] = system: K-562; assay: NCI 60 panel, Leukemia K-562; assay type: cell-based; conditions: Homo sapiens, K562, read-out: Tumor cell inhibitory activity (NCI) GI50
[5] = system: A549/ATCC; assay: NCI 60 panel, NSCLC A549/ATCC; assay type: cell-based; conditions: Homo sapiens, read-out: Tumor cell inhibitory activity (NCI) GI50
[6] = system: NCI-H322M; assay: NCI 60 panel, NSCLC NCI-H322M; assay type: cell-based; conditions: Homo sapiens, read-out: Tumor cell inhibitory activity (NCI) GI50
[7] = system: HCT-116; assay: NCI 60 panel, Colon Cancer HCT-116; assay type: cell-based; conditions: Homo sapiens, read-out: Tumor cell inhibitory activity (NCI) GI50
[8] = system: HCT-15; assay: NCI 60 panel, Colon Cancer HCT-15; assay type: cell-based; conditions: Homo sapiens, read-out: Tumor cell inhibitory activity (NCI) GI50
[9] = system: SW-620; assay: NCI 60 panel, Colon Cancer SW-620; assay type: cell-based; conditions: Homo sapiens, read-out: Tumor cell inhibitory activity (NCI) GI50
[10] = system: SNB-75; assay: NCI 60 panel, CNS Cancer SNB-75; assay type: cell-based; conditions: Homo sapiens, read-out: Tumor cell inhibitory activity (NCI) GI50
[11] = system: MALME-3M; assay: NCI 60 panel, Melanoma MALME-3M; assay type: cell-based; conditions: Homo sapiens, read-out: Tumor cell inhibitory activity (NCI) GI50
[12] = system: UACC-62; assay: NCI 60 panel, Melanoma UACC-62; assay type: cell-based; conditions: Homo sapiens, read-out: Tumor cell inhibitory activity (NCI) GI50
[13] = system: SK-OV-3; assay: NCI 60 panel, Ovarian cancer SK-OV-3; assay type: cell-based; conditions: Homo sapiens, read-out: Tumor cell inhibitory activity (NCI) GI50

COc1ccc(N(C)c2nc(C)nc3c(Cc4ccccc4)cn(C)c23)cc1 [Compound 4, 7-Benzyl-N-(4-methoxyphenyl)-N,2,5-trimethyl-5H-pyrrolo[3,2-d]pyrimidin-4-amine] was tested, and the “inhibition of colchicine binding (1 μM inhibitor)” value ([1]; 1 μM inhibitor, [3H]colchicine, in % (unit assumed)) was 73 ± 3, the “inhibition of colchicine binding (5 μM inhibitor)” value ([1]; 5 μM inhibitor, [3H]colchicine, in % (unit assumed)) was 92 ± 0.2 and the “inhibition of [3H]colchicine binding to tubulin, in words” value ([1]; compared with combretastatin A-4) was “potent inhibitors”. For the same compound, the IC50 [2] was 1.2 nM, the GI50 [3] was 26.8 nM and the GI50 [4] was 33.7 nM. For the same compound, the GI50 [5] was 44 nM, the GI50 [6] was 73.6 nM and the GI50 [7] was 35 nM. The GI50 [8] was 38.1 nM, the GI50 [9] was 38.4 nM and the GI50 [10] was 27.8 nM. It also gave a GI50 [11] of 17.7 nM, a GI50 [12] of 475 nM and a GI50 [13] of 45.4 nM.
